Patent publication US7803757B2, “Peptides based on the sequence of human lactoferrin and their use” (PharmaSurgics in Sweden AB, priority 1998, dated 2010)
≈ marks a conversion by molar mass, not a printed value. Bridge positions count the residues as written; N and C are the ends. Ends that are not written are not given here.

Assays:
C. albicans (ATCC 64549) = test: microbe, parasite or virus in culture; conditions: for MMC99%: C. albicans ATCC 64549, 2×10^5 cells/ml, BHI diluted 1/100; for MIC: Candida albicans, ATCC64549
Procedure: (§1) In the examples, the minimal microbicidal concentrations (MMC) and minimal inhibitory concentrations (MIC) were determined as follows, unless otherwise specified in the examples. Bacterial or fungal strains were cultured in BHI medium over night at 37° C. A volume of the culture was transferred to a new tube with BHI and incubated for two more hours. Thereafter the cells were spun down and the pellet was suspended in BHI medium diluted 1/100 (1% BHI). The concentration of bacterial or fungal cells was spectrophotometrically determined at 650 nm. The microbial concentrations were also determined by viable counts. Peptides serially diluted in 1% BHI by twofold or tenfold steps were added in triplicate to the wells of a microtiterplate (200 μl per well). The bacterial or fungal cell solutions were added in 10 μl volumes to give a final concentration of approximately 1-5×10^5 cells per ml in the well. The microplate was incubated at 37° C. in a humid chamber for two hours. Thereafter 5 μl was taken from each well and added as a drop onto a blood agar plate and incubated over night at 37° C. The microplate was incubated for another 20 hours at 37° C. and thereafter analysed spectrophotometrically at 650 nm in a microplate reader (Emax, Molecular Devices, USA). The concentration of peptide causing a 99% reduction of the inoculum after 2 hours of incubation was defined as the MMC99%. The MIC value was defined as the concentration giving no increase in the absorbance value above the background level after 20 hours of incubation.
In this example the fungicidal activity of one of the peptides according to the invention, the peptide with SEQ. ID. NO. 7, was compared to the conventional antifungal agents flucytosine and fluconazole, and also to human lactoferrin (hLF). The antifungal agents were tested on C. albicans (ATCC 64549) in a concentration of 2×10^5 cells/ml. The tests were performed in BHI medium diluted 1/100.

C. albicans [1] = test: microbe, parasite or virus in culture; format: cell-based; conditions: C. albicans, BHI diluted 1/100, twofold dilutions from 20 μg/ml
Procedure: as §1
Also in this example one of the peptides according to the invention—this time the peptide with SEQ. ID. NO. 4, was compared to a conventional fungicide, amphotericin. The antifungal activity against C. albicans was studied. Twofold serial dilutions with a starting concentration of 20 μg/ml were used. BHI diluted 1/100 was used as growth medium.

E. coli O14 = test: bactericidal activity against E. coli O14, comparison with EP-A-0 629 347 peptides (Example 7); format: cell-based; conditions: E. coli O14, I: serial dilutions of tenfold steps
Procedure: (§2) In this example an in vitro test was performed to compare the bactericidal and fungicidal activity of the peptides according to the invention with peptides described in EP-A-0 629 347. The peptide according to the invention used was peptide 4, and the peptides according to EP-A-0 629 347 called Morinaga 10, Morinaga 11, Morinaga 12, and Morinaga 13.
(§3) The peptides were incubated with E. coli O14 and Candida albicans. Two concentrations of C. albicans yeast cells were tested, 5·10^6 and 5·10^3 per ml. Different concentrations of the peptides were tested.
(§4) After the incubation, samples were taken for bacterial plating. Serial dilutions of tenfold steps were used in the experiments marked with I in table 5 and of twofold steps in the experiments marked with II.

Candida albicans = test: fungicidal activity against Candida albicans, comparison with EP-A-0 629 347 peptides (Example 7); format: cell-based; conditions: C. albicans, I (tenfold steps)
Procedure: as §2, §3, §4

E. coli = test: MMC99% of modified peptides, E. coli (Example 26); format: cell-based; conditions: BHI diluted 1/100, pH approximately 6.7-6.9 (Table 22)
Procedure: as §1
(§5) In this example the fungicidal, and bactericidal effects of the different peptides obtained in example 22 were studied. C. albicans, E. coli and S. aureus, respectively, were incubated in BHI medium diluted 1/100, with a pH of approximately 6.7-6.9. The concentration of each peptide needed to kill 99% of the microorganisms (MMC99%) was determined.

S. aureus = test: MMC99% of modified peptides, S. aureus (Example 26); format: cell-based; conditions: BHI diluted 1/100, pH approximately 6.7-6.9 (Table 22)
Procedure: as §1, §5

C. albicans [2] = test: MMC99% of modified peptides, C. albicans (Example 26); format: cell-based; conditions: BHI diluted 1/100, pH approximately 6.7-6.9 (Table 22)
Procedure: as §1, §5

C. albicans [3] = test: microbicidal activity MMC99%, C. albicans (Example 28); format: cell-based; conditions: C. albicans (Table 24)
Procedure: as §1
(§6) In this example the microbicidal activity of eight of the peptides according to the invention was studied, and tested against E. coli O6K5 and C. albicans.
(§7) The concentration of each peptide needed to kill 99% of the microorganisms (MMC99%) was determined.

E. coli O6K5 = test: microbicidal activity MMC99%, E. coli O6K5 (Example 28); format: cell-based; conditions: E. coli O6K5 (Table 24)
Procedure: as §1, §6, §7

| Compound | MMC99% (E. coli) | MMC99% (S. aureus) | MMC99% (C. albicans [2]) | MMC99% (C. albicans [3]) | MMC99% (E. coli O6K5) | also measured |
| --- | --- | --- | --- | --- | --- | --- |
| Nc1[nH]c(=O)ncc1F [Flucytosine, flucytosine, reference compound] | – | – | – | – | – | MMC99% (C. albicans (ATCC 64549)): >500 µg/mL; MIC (C. albicans (ATCC 64549)): 250 µg/mL (≈ 1940 µM) |
| C[C@@H]1[C@H](O)[C@@H](C)/C=C/C=C/C=C/C=C/C=C/C=C/C=C/[C@H](O[C@@H]2O[C@H](C)[C@@H](O)[C@H](N)[C@@H]2O)C[C@@H]2O[C@](O)(C[C@@H](O)C[C@@H](O)[C@H](O)CC[C@@H](O)C[C@@H](O)CC(=O)O[C@H]1C)C[C@H](O)[C@H]2C(=O)O [Amphotericin, amphotericin, reference compound] | – | – | – | – | – | MMC99% (C. albicans [1]): 2.5 µg/mL; MIC (C. albicans [1]; Candida albicans, read-out: MIC): 0.6 µg/mL (≈ 0.649 µM) |
| F-Q-W-Q-R [Morinaga 11] | – | – | – | – | – | Concentration of agent for 100% killing (E. coli O14): >500 µg/mL; Concentration of agent for 100% killing (Candida albicans; 5 · 10^3 yeast cells per ml): >2000 µg/mL; Concentration of agent for 100% killing (Candida albicans; 5 · 10^6 yeast cells per ml): >2000 µg/mL |
| SEQ. ID. NO. 97: listed under the third and fourth embodiments; sequence only in the appended sequence listing (CFALKKAMKKVR) | 6 | 6 | 12 | – | – | – |
| OC(Cn1cncn1)(Cn1cncn1)c1ccc(F)cc1F [Fluconazole, fluconazole, reference compound] | – | – | – | – | – | MMC99% (C. albicans (ATCC 64549)): >500 µg/mL; MIC (C. albicans (ATCC 64549)): > 500 µg/mL |
| SEQ. ID. NO. 55: modification of SEQ. ID. NO. 7 wherein the Asp in position 9 is substituted with a Glu (TKAFKWQREMRKVR; lactam 5-9) | – | – | – | 5 | 5 | – |
| C-F-A-W-K-R-N-M-R-K-V-R (CFAWKRNMRKVR) [SEQ. ID. NO. 93] | 6 | 6 | 12 | 5 | 5 | – |
| C-F-Q-W-K-R-N-M-R-K-V-R (CFQWKRNMRKVR) [SEQ. ID. NO. 91] | 6 | 6 | 6 | 5 | 5 | – |
